Measurements published in patent publication US20220218835A1, “COMBINATION THERAPY” (priority 2019, published 2022).

Tested on: MM1S tumours
Test: MM1S xenograft mouse model
Format: in vivo, CB17 SCID mice
Method: A CB17 SCID mice (n=7 each group) with palpable MM1S tumour implants were randomized and treated with control vehicle, a single dose of M2 (0.4 mg/kg), six doses of btz (0.4 mg/kg), or combination of M2 and btz (M2+btz) for 2 weeks. […] D Tumour tissue sections from each group were immunohistochemically analyzed for Ki-67 (original magnification, ×400). […] Tumours were removed at the same treatment day from representative mice.
CB-17 SCID-mice were subcutaneously inoculated with 5.0×106 MM.1S cells in 100 μl of serum-free RPMI 1640 medium. When tumours were measurable approximately 3 weeks after MM-cell injection, mice (8 mice/group) were randomized and treated with vehicle alone, M2, btz, or M2 with btz. Tumour size was measured every third day in 2 dimensions using calipers, and tumour volume was calculated using the following formula: V=0.5a×b2, where “a” and “b” are the long and short diameter of the tumour, respectively. Animals were sacrificed when their tumours reached 2 cm^3.
Following 3d-treatment, tumour from each group was harvested and cell lysates were made for immunoblotting. […] Immunohistochemical images were taken on Zeiss Inverted Fluorescence Microscope for Ki67. […]
In vivo efficacy of sub-optimal doses M2 with btz was next evaluated in the MM1S xenograft mouse model. […]

## CC(C)C[C@H](NC(=O)[C@H](Cc1ccccc1)NC(=O)c1cnccn1)B(O)O [btz, Bortezomib]
24d after treatment, single dose M2, 6 doses btz (0.4 mg/kg)
  MM1S tumour growth: significantly delays
Kaplan-Meier, follow-up 177 d
  median overall survival: 35 days
